In PMC11920646 (Frontiers in Pharmacology, 2025):
“And” between values parts separate entries of the source, which are not always exact repeats. Equal entries are not always repeated.

Experiments:
human MR = target: T1, human MR (Homo sapiens, UniProt P08235); experiment: Human MR radioligand binding (3H-aldosterone, recombinant MR from Sf9 cells); conditions: 3H-aldosterone 0.4 nM, 20 h, 4°C
T1 construct: host or cells: insect Sf9 cells
T1 sequence (P08235 1-984): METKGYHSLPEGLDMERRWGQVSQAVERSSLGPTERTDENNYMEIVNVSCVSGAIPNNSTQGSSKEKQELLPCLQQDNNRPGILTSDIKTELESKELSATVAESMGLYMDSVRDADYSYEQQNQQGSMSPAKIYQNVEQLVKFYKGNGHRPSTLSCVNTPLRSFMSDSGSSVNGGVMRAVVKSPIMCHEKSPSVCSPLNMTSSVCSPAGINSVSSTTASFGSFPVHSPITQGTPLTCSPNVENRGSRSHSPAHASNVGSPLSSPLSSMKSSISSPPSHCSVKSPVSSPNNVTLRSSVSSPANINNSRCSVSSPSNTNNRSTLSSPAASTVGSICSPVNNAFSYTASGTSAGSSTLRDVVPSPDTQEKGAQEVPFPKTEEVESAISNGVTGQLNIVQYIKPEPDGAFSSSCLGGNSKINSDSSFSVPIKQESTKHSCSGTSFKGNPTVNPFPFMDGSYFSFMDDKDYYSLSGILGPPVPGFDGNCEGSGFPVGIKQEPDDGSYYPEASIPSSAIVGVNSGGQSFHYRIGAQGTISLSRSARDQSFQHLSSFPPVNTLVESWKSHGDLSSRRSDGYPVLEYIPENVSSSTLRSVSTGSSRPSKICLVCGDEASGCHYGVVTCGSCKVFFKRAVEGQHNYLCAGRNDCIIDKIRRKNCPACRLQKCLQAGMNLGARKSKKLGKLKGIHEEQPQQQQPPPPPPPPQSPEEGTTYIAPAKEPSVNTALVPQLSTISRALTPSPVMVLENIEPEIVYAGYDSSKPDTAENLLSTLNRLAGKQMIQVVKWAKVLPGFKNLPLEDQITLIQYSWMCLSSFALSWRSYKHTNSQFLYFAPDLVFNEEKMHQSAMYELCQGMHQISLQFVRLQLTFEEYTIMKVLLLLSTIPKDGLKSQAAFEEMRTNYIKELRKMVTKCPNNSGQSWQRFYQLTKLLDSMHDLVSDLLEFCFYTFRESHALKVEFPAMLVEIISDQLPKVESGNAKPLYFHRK
Experimental: Scintillation counting of bound radioligand was conducted after 6 and 20 h of incubation (at 4°C), respectively. […] Scintillation counting of bound radioligand was conducted after 20 h of incubation at 4°C.
The same statistical methods were used for the MR binding assays, but using MathIQ™ software (ID Business Solutions Ltd., Woking, United Kingdom).
Percent inhibition of control specific binding was calculated as follows: […]
The half-maximal inhibitory concentration (IC50; i.e., the concentration causing a half-maximal inhibition of control specific binding) and Hill coefficients (nH) were determined by non-linear regression analysis of the competition curves generated with mean replicate values using the following Hill equation curve fitting: Y=D+ A-D1+ C/C50nH , where Y = specific binding, A = left asymptote of the curve, D = right asymptote of the curve, C = compound concentration, C50 = IC50, and nH = slope factor.
The inhibition constants (Ki) were calculated using the Cheng Prusoff equation:
where L = concentration of radioligand employed in the assay, and KD = affinity of the radioligand for the receptor (a Scatchard plot was used to determine the KD) (Cheng and Prusoff, 1973).

[1] = system: IL-6 release in A549 cells; design: method as in Hu et al., 2011; conditions: dagrocorat study ref Hu et al., 2011; cited from earlier work
human GR = target: T2, human GR (Homo sapiens, UniProt P04150); experiment: GR reporter gene (transactivation) assay, CHO-Gal4/GR; format: cell-based; conditions: % of reference agonist beclomethasone
T2 construct: host or cells: CHO (DSMZ ACC-110), CHO-Gal4/GR
T2 sequence (P04150 524-758 limits assumed): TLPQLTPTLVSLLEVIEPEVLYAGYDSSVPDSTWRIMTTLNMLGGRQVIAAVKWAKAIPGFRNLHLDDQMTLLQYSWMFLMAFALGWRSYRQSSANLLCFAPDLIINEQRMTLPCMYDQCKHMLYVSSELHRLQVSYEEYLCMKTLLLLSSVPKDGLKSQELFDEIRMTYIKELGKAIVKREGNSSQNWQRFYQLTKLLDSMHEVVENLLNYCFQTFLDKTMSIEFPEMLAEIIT
Description: To create the CHO-Gal4/GR, CHO-Gal4/PR, and CHO-Gal4/MR reporter cell lines, first CHO cells were stably transfected with a GAL4-UAS-luciferase reporter construct. Then, the LBD of the GR, PR, or MR (GR Gene ID: 2908, PR Gene ID: 5241, MR Gene ID: 4306, respectively) was cloned into pIRES2-EGFP-GAL4 containing the DBD of GAL4 from pFA-AT2, and then co-transfected into the luciferase-reporter construct-containing CHO cells. These reporter cell lines express the respective nuclear hormone receptor LBD-DBD fusion proteins that control luciferase expression of a GAL4-upstream activation sequence (UAS)-luciferase reporter construct, allowing for detection of ligand- or compound-induced transactivation at the GR, PR, or MR by measuring luciferase activity.
Cryo-preserved CHO-Gal4/GR, CHO-Gal4/PR, and CHO-Gal4/MR cells were plated in medium at 7,500 cells/well in 384-well assay plates (25 μL/well), and incubated for 24 h. […] Following a 4-h incubation, cells were lysed and luminescence measured using the EMCCD camera FLIPR®Tetra (Molecular Devices, Silicon Valley, CA, United States).
Transactivation (i.e., gene activation) was expressed as a percentage of the reference agonist activity (Supplementary Material), using Genedata Screener® v15.0.5 software (Basel, Switzerland).
Transactivation was calculated according to this equation: […]

For `C[C@]12C=CC(=O)C=C1CC[C@@H]1[C@@H]2[C@@H](O)C[C@@]2(C)[C@H]1CC[C@]2(O)C(=O)CO` [Prednisolone], the IC50 (human MR; read-out: Mineralocorticoid receptor IC50) is listed as 0.78 nM, the Ki (human MR; read-out: Mineralocorticoid receptor Ki) is listed as 0.26 nM and the “inhibition of IL-6 release in A549 cells” value [1] is listed as 100%. The “GR transactivation, mean activation (efficacy)” value (human GR) was 80.5% and 80.5 ± 2.2%.
